Laboratory results taken from US10160766B1, “Benzopyranyl tetracycle compound and pharmaceutical composition having excellent anti-inflammatory effect comprising the same” (Spark Biopharma, Inc., priority 2017, dated 2018).
≈ marks a conversion by molar mass, not a printed value. Entries after “also recorded” stand apart in the source; their conditions may differ.

Key:
[1] = test system: HMGB1; experiment: Immunofluorescence of cellular localization of HMGB1 upon LPS treatment; format: cell-based; details: Raw264.7 cell, 20 μM compounds 1 hour prior to 500 ng/mL LPS for 2 hours
Experimental: From the results shown in Table 6, Compounds 2j (68%) and 2l (60%) had better TNF-α release inhibitory effect than that of Compound 1d (43%). Therefore, it was analyzed with the immunofluorescence whether Compounds 2j and 2l may inhibit the cellular localization of HMGB1 upon LPS treatment.
Raw264.7 cell was seeded in “Nunc Lab-Tek II” chambered coverglass and maintained for 1 day.
Then, 20 μM of compounds were treated 1 hour prior to 500 ng/mL LPS treatment for 2 hours.
After aspirating the media and washing with PBS, 200 μl of 4% paraformaldehyde solution was treated and incubated at room temperature for 20 minutes. Then, 4% paraformaldehyde solution was aspirated and the sample was washed with PBS three times.
For the permeabilization to enable antibody binding, 200 μL of methanol was treated and incubated at −20° C. for 20 minutes. Methanol was then removed and the sample was washed with PBS three times.
Sample was blocked with 2% BSA in PBS solution at room temperature for 1 hour. Then, 2% BSA in PBS solution was removed and primary antibody containing 1% BSA in PBS was treated at 4° C. overnight. Antibody concentration was optimized according to the manufacturer's protocol. Primary antibody solution was removed and the sample was washed with PBS three times. Secondary antibody containing 1% BSA in PBS solution was treated at room temperature for 1 hour.
The secondary antibody used was goat anti rabbit TRITC labeled antibody from Abcam.
After 1 hour, antibody solution was aspirated and the sample was washed with PBS three times. For nucleus staining, Hoechst 33342 was diluted in PBS, and each well was treated and incubated at room temperature for 1 hour. Hoechst 33342 was then removed and the chamber was filled with PBS, continued for imaging using DeltaVision microscope.

[2] = Liver microsomal stability, mouse; format: in vitro ADME; details: for microsomal stability Mouse(%): mouse liver microsomal
From the text: (§1) The aqueous solubility, liver microsomal stabilities and PK profiles was measure for Compounds 1d, 2j, and 2l in the in vivo CLP-induced mouse models.

[3] = test system: Raw 264.7 cell; experiment: WST (water-soluble tetrazolium) analysis, relative cell viability; format: cell-based; details: 100 ng/mL LPS and compounds 24 hours
Experimental: Relative cell viability of Compound 2a to 2o prepared in Examples 2 was measured by WST (water-soluble tetrazolium) analysis.
Raw 264.7 cell was seeded in transparent 96-well plate and maintained for 1 day.
Media was aspirated, and each well was washed with serum free DMEM for twice. Each well was refilled with serum-free DMEM. Then, 100 ng/mL LPS and compounds were treated afterward and cultured for 24 hours. After the incubation, the supernatant culture media was transferred to new 96-well plate.
Immediately after transferring media, cell-seeded wells were refilled with 100 μL of 10% FBS and 1% antibiotic-antimycotic containing DMEM. Then, 10 μL of Ez-cytox WST assay reagent was used to treat each well, following the manufacturer's protocol.
After incubating for 20 min in a 5% CO2 incubator at 37° C. with humidified atmosphere, absorbance was read at 450 nm.
Blank values were obtained from the well only treated with 10% FBS and 1% antibiotic-antimycotic containing DMEM.

[4] = test system: TNF-α secretion in Raw264.7 cell; experiment: ELISA of secreted TNF-α; format: cell-based; details: Mus musculus, LPS 100 ng/mL, compounds 10 μM, read-out: TNF-α Inhibition Rate (%)
Experimental: Thus, in order to additionally confirm the inflammation inhibitory effects of Compounds 2f to 2l, the inhibition rate of TNF-α secretion was quantitatively measured by ELISA.
Cells were treated with each Compound 1d, or 2f to 2l, and LPS for 24 hours, followed by ELISA for TNF-α present in the culture solution.
In order to measure the amount of secreted TNF-α, Raw264.7 cell was seeded in transparent 96-well plate and maintained for 1 day. Media was aspirated after 1 day and replaced to serum-free DMEM with 1% (v/v) antibiotic-antimycotic solution. LPS and compounds were treated in a final concentration of 100 ng/mL and 10 μM.
Standard curve was plotted by the dose-dependent treatment of the control TNF-α protein provided with the ELISA kit. Blank value was measured by adding solutions without TNF-α substrate.
The TNF-α secretion inhibition rate of Compounds 1d, and 2f to 2l was confirmed, when compared with control groups.

[5] = test system: NO release in Raw264.7 cells; experiment: Griess assay, inhibition of nitric oxide release; format: cell-based; details: 100 ng/mL LPS and compounds 24 hours, compared with control group
Experimental: Thus, the Griess assay was used to measure nitric oxide secretion for inflammation inhibition in Raw264.7 cells.
Raw 264.7 macrophage cell was cultured in Dulbecco Modified Eagle Medium (DMEM) with 10% (v/v) fetal bovine serum (FBS) and 1% (v/v) antibiotic-anti mycotic solution.
Cell was maintained in a 100 mm cell culture dish under cell culture conditions (5% CO2 incubator at 37° C. with humidified atmosphere).
Griess assay reagent was generated prior to the assay with the following contents listed below: N-(1-naphthyl) ethylenediamine dihydrochloride, 0.1% (m/v); sulfanilamide, 1% (m/v); phosphoric acid (85%); 5% (v/v) in deionized water.
Raw 264.7 cell was seeded in transparent 96-well plate and maintained for 1 day. Media was aspirated, and each well was washed with serum free DMEM for twice. Each well was refilled with serum-free DMEM.
Then 100 ng/mL LPS and compounds were treated afterward and cultured for 24 hours. After the incubation, the supernatant culture media was transferred to new 96-well plate and mixed with 50 μL of Griess assay reagent.
Media-reagent mixture was incubated at room temperature for several minutes. Absorbance was read at 548 nm. Four wells each were used for the control experiment, LPS and DMSO (without any compounds) treated well, and DMSO-only treated well. Blank values were measured.
Blank values were measured by mixing 50 μL of Griess assay reagent with […] and 1% antibiotic-antimycotic containing DMEM.
As for the compounds in which the double bond of the tetrahydropyridazine ring in Compound 1d is moved or eliminated, the inhibition rate of NO release was measured in the same manner as in Test Example 2.
The inhibition rate of NO release for Compounds 2a to 2o prepared in Example 2 was tested in order to confirm the anti-inflammatory effect for the above compounds.

[6] = Liver microsomal stability, human; format: in vitro ADME; details: for microsomal stability Human(%): human liver microsomal
From the text: as §1

[7] = test system: NF-κB p65; experiment: NF-κB p65 immunofluorescence (migration to the nucleus); format: cell-based; details: Raw264.7 cells, 500 ng/mL LPS
From the text: It is concluded that Compounds 1d, 2j, and 2l controlled and regulated the inflammatory signaling pathways in activated macrophages.

[8] = test system: CLP-induced mice; experiment: Survival rate in CLP-induced mouse model; details: for survival rate / survival rate, in words: CLP mice; for survival rate: intraperitoneally, daily dose of 10 mg/kg for 21 days, start 1 hour before induction; for survival rate, in words: 10 mg/kg ip daily for 21 days, compared with vehicle and 1d groups
From the text: Briefly, the CLP mouse model is established by performing a surgical procedure to the cecum, which is the organ where the resident enteric microbiome exists. Ligating the cecum and puncturing the end with a needle causes endotoxemia by inducing polymicrobial contamination in the abdominal cavity toward the circulatory system.

[9] = PK profiles in mouse; format: in vivo; details: ip injection
From the text: as §1

[10] = test system: MAPK including p38, JNK, and ERK; experiment: Western blot of MAPK phosphorylation; format: cell-based; details: Raw264.7 cells
Experimental: (§2) Western Blot Analysis Protein sampling was done in 4° C. Cells were harvested in RIPA lysis buffer containing protease inhibitor cocktail and phosphatase inhibitor.
(§3) After centrifugation at 15000 rpm for 20 minutes, supernatant was transferred to new 1.5 mL tube. Protein concentration was normalized with a Micro BCA protein assay kit. The protein samples were analyzed with the Western blot procedure. Protein was transferred into PVDF membrane after SDS-PAGE. Membrane was blocked after transfer step, with 2% BSA in TBST for 1 hour in room temperature.
(§4) Primary antibodies were treated overnight at 4° C. or 1 hour in room temperature, followed by washing with TBST.
(§5) HRP-conjugated secondary antibodies were treated for 1 hour in room temperature. Antibodies were diluted in 1% BSA in TBST solution, with the concentration indicated in antibody manufacturer's protocol. After washing with TBST, the membrane was developed by Amersham ECL prime solution. Chemiluminescent signal was measured by ChemiDoc MP imaging system, and relative quantification were followed using ImageLab 4.0 software. The quantification result was processed with GraphPad Prism 5.0 software.

[11] = test system: IL-6 secreted from Raw 264.7 cells; experiment: Western blot analysis of IL-6 secretion; format: cell-based; details: pretreatment with compounds
Experimental: From the results shown in Table 6, Compounds 2j (68%) and 2l (60%) had better TNF-α release inhibitory effect than that of Compound 1d (43%). Therefore, the inhibitory effect of IL-6 release secretion was analyzed with the Western blot analysis in order to additionally confirm the inflammation inhibitory effect of Compounds 2j and 2l.
as §2, §3, §4, §5

[12] = test system: IL-6; experiment: IL-6 level in CLP-induced mice (ELISA); details: CLP mouse model, daily dose of 10 mg/kg for 9 days starting 1 hour before CLP induction
Experimental: After 4 hours, media were transferred to new transparent 96-well plate and diluted with 1% BSA in PBS solution. ELISA assay was performed following the manufacturer's protocol.
ELISA plates (Costar, Cambridge, Mass.) were coated overnight with anti-IL-6 monoclonal antibody (eBioscience, San Diego, Calif.) at 4° C. Wells were blocked with PBS containing 1% bovine serum albumin (Sigma-Aldrich, St. Louis, Mo.) for 1 hour at room temperature (RT) and incubated with serum overnight at 4° C.
After washing, plates were incubated with biotinylated anti-IL-6 antibody (eBioscience) for 1 hour at RT. Streptavidin-conjugated horseradish peroxidase (eBioscience) is attached for 1 hour at RT. Then, Color was developed using TMB solution (eBioscience),
Absorbance was read at 450 nm with a Multiskan Ascent (Labsystems, Kennett Square, Pa.). All experiments were independently performed at least three times.

[13] = Aqueous solubility; format: physicochemical
From the text: as §1

Row | Compound | translocation of HMGB1 from the nucleus to the cytosol [1] | microsomal stability Mouse(%) [2] [%] | Relative Cell Viability (%) [3] [%] | inhibition at 10 µM [4] [%] | NO Inhibition rate (%) [5] [%] | microsomal stability Human(%) [6] [%] | migration of NF-κB to the nucleus [7] | survival rate [8] | PK data AUC [9] [µg·h/mL] | PK data Cmax [9] [µg/mL] | PK data T1/2 [9] [h] | PK data Tmax [9] [h] | phosphorylation of MAPK including p38, JNK, and ERK [10] | level of IL-6 secreted (western blot) [11] | liver microsomal stability in mice, in words, compared with Compound 1d [2] | solubility in aqueous media, in words, compared with Compound 1d [13] | liver microsomal stability in humans, in words, compared with Compound 1d [6] | survival rate, in words [8] | other results
1 | CC1(C)Oc2cc(O)ccc2C2C1=CCn1c(=O)n(-c3ccccc3)c(=O)n12 (centres unmarked) [Compound 1d, inflachromene] | inhibited the translocation of HMGB1 from the nucleus to the cytosol | 0.41 ± 0.10 | 105 | 43 | 87 | 0.82 ± 0.29 | inhibit the migration of NF-κB to the nucleus | about 45% | 327 ± 68.7 | 387 ± 122 | 3.87 ± 0.84 | 0.14 ± 0.10 | clearly inhibited the phosphorylation of MAPK including p38, JNK, and ERK | significantly reduced | – | – | – | – | survival rate, in words, compared with vehicle-treated group ([8]; CLP-induced mice, ip 10 mg/kg for 9 days): significantly increased; IL-6 levels in surviving mice, compared with control group [12]: significantly reduced
2 | CC(=O)c1ccc(-n2c(=O)n3n(c2=O)C2C(=CC3)C(C)(C)Oc3cc(O)ccc32)cc1 (centres unmarked) [Compound 2j] | inhibited the translocation of HMGB1 from the nucleus to the cytosol | 2.46 ± 1.83 | 111 | 68 | 93 | 30.2 ± 2.81 | inhibit the migration of NF-κB to the nucleus | 74% | 202 ± 28.1 | 100 ± 3.72 | 3.45 ± 1.00 | 0.25 ± 0.00 | clearly inhibited the phosphorylation of MAPK including p38, JNK, and ERK | superior inhibitory effect on IL-6 secretion; also recorded: improved the inhibition of IL-6 release | improved liver microsomal stability | improved solubility in aqueous media | improved liver microsomal stability | superior effects on survival rates | solubility ([13]; aqueous media): 162 ± 2.12 µg/mL (≈ 387 µM)
3 | COc1cc(OC)cc(-n2c(=O)n3n(c2=O)C2C(=CC3)C(C)(C)Oc3cc(O)ccc32)c1 (centres unmarked) [Compound 2l] | inhibited the translocation of HMGB1 from the nucleus to the cytosol | 20.2 ± 1.78 | 121 | 60 | 94 | 41.2 ± 4.33 | inhibit the migration of NF-κB to the nucleus | 54% | 218 ± 51.8 | 282 ± 87.0 | 5.00 ± 0.98 | 0.14 ± 0.10 | clearly inhibited the phosphorylation of MAPK including p38, JNK, and ERK | superior inhibitory effect on IL-6 secretion; also recorded: improved the inhibition of IL-6 release | improved liver microsomal stability | improved solubility in aqueous media | improved liver microsomal stability | superior effects on survival rates | –
